# Measured values taken from patent publication US10947188B2, “Small molecule ferroptosis inducers” (THE TRUSTEES OF COLUMBIA UNIVERSITY IN THE CITY OF NEW YORK, priority 2016, dated 2021).
# System: BJeLR
# Experiment: Modulatory profiling: Alamar Blue viability, lethal compound cotreated with death modulator (EC50, AUC)
# Format: cell-based, human
# Set-up: AUC, modulator BJ.Gd3+ / AUC, modulator BJ.LNAME / AUC, modulator BJ.Lmin / AUC, modulator BJ.3MA / AUC, modulator BJ.ALLN / AUC, modulator BJ.Boc D / AUC, modulator BJ.CHX / AUC, modulator BJ.Co2+ / AUC, modulator BJ.Nec-1 / AUC, modulator BJ.Pepstatin / AUC, modulator BJ.TLCK / AUC, modulator BJ.atoc / AUC, modulator BJ.trolox / AUC, modulator BJ.zVAD: unit not given beside the values
# Settings: for AUC, modulator BJ.3MA / AUC, modulator BJ.ALLN / AUC, modulator BJ.Boc D / AUC, modulator BJ.CHX / AUC, modulator BJ.Co2+ / AUC, modulator BJ.DPQ / AUC, modulator BJ.Gd3+ / AUC, modulator BJ.LNAME / AUC, modulator BJ.Lmin/NAD+ / AUC, modulator BJ.Lmin / AUC, modulator BJ.NAD+ / AUC, modulator BJ.NMMA / AUC, modulator BJ.Nec-1 / AUC, modulator BJ.Pepstatin / AUC, modulator BJ.TLCK / AUC, modulator BJ.atoc / AUC, modulator BJ.trolox / AUC, modulator BJ.zVAD: BJeLR cells, modulatory profile value (AUC); for AUC, modulator BJ.3MA: lethal compound cotreated with modulator 3MA; for AUC, modulator BJ.ALLN: lethal compound cotreated with modulator ALLN; for AUC, modulator BJ.Boc D: lethal compound cotreated with modulator Boc D; for AUC, modulator BJ.CHX: lethal compound cotreated with modulator CHX; for AUC, modulator BJ.Co2+: lethal compound cotreated with modulator Co2+; for AUC, modulator BJ.DPQ: lethal compound cotreated with modulator DPQ; for AUC, modulator BJ.Gd3+: lethal compound cotreated with modulator Gd3+; for AUC, modulator BJ.LNAME: lethal compound cotreated with modulator LNAME; for AUC, modulator BJ.Lmin/NAD+: lethal compound cotreated with modulator Lmin/NAD+; for AUC, modulator BJ.Lmin: lethal compound cotreated with modulator Lmin; for AUC, modulator BJ.NAD+: lethal compound cotreated with modulator NAD+; for AUC, modulator BJ.NMMA: lethal compound cotreated with modulator NMMA; for AUC, modulator BJ.Nec-1: lethal compound cotreated with modulator Nec-1; for AUC, modulator BJ.Pepstatin: lethal compound cotreated with modulator Pepstatin; for AUC, modulator BJ.TLCK: lethal compound cotreated with modulator TLCK; for AUC, modulator BJ.atoc: lethal compound cotreated with modulator atoc; for AUC, modulator BJ.trolox: lethal compound cotreated with modulator trolox; for AUC, modulator BJ.zVAD: lethal compound cotreated with modulator zVAD; for EC50: Homo sapiens, BJeLR, 48 h
SMILES,"AUC, modulator BJ.3MA","AUC, modulator BJ.ALLN","AUC, modulator BJ.Boc D","AUC, modulator BJ.CHX","AUC, modulator BJ.Co2+","AUC, modulator BJ.DPQ","AUC, modulator BJ.Gd3+","AUC, modulator BJ.LNAME","AUC, modulator BJ.Lmin/NAD+","AUC, modulator BJ.Lmin","AUC, modulator BJ.NAD+","AUC, modulator BJ.NMMA","AUC, modulator BJ.Nec-1","AUC, modulator BJ.Pepstatin","AUC, modulator BJ.TLCK","AUC, modulator BJ.atoc","AUC, modulator BJ.trolox","AUC, modulator BJ.zVAD",other results
"COC(=O)c1ccc([C@@H]2c3[nH]c4ccccc4c3C[C@@H](C(=O)OC)N2C(=O)CCl)cc1 [RSL3, reference compound]",0.09104,0.01266,0.03832,0.1841,0.1091,0.03115,0.02448,0.02932,0.3858,0.3462,0.04136,0.007806,0.2379,−0.0008093,0.2732,0.3601,0.3731,0.00586,–
CC[C@]1(O)C[C@H]2CN(CCc3c([nH]c4ccccc34)[C@@](C(=O)OC)(c3cc4c(cc3OC)N(C=O)[C@H]3[C@@](O)(C(=O)OC)[C@H](OC(C)=O)[C@]5(CC)C=CCN6CC[C@]43[C@@H]65)C2)C1 [Vincristine],−0.03566,−0.03171,−0.005016,0.1955,0.1806,−0.03044,0.007944,−0.00717,0.1721,0.06034,0.1255,−0.003354,−0.05572,−0.002521,−0.01255,0.04717,−0.03305,0.01856,–
CCCCNc1cc(C)nc(NCc2ccccc2)n1 [CIL18],0.0654,−0.04507,−0.01841,−0.01582,0.08943,−0.01318,−0.01659,−0.01628,−0.0502,−0.05505,0.00749,−0.02371,0.0226,0.04724,−0.03824,−0.0004228,0.0395,−0.005402,–
"O=S(=O)(c1ccc2c(c1)C(=NO)c1cc(S(=O)(=O)N3CCCCC3)ccc1-2)N1CCCCC1 [CIL56, 2,7-bis(piperidin-1-ylsulfonyl)-9H-fluoren-9-one oxime]",0.1459,0.05831,−0.01043,−0.07221,0.1263,0.03219,0.004997,0.005978,0.2194,0.1358,0.02645,0.0004905,0.2368,0.03545,0.1986,–,–,–,EC50 (DMSO): 0.213 µM; EC50 (cotreated with Lmim_NAD): 1.3 µM; EC50 (cotreated with antioxidant Trolox): 2.03 µM; EC50 (cotreated with antioxidant atoc): 2.49 µM; EC50 (cotreated with iron-chelator Lmim): 0.925 µM
CC[C@@]1(O)C(=O)OCc2c1cc1n(c2=O)Cc2cc3ccccc3nc2-1 [Camptothecin],−0.02027,0.03368,0.07983,0.1233,0.02899,−0.01119,−0.007898,0.003206,0.1164,0.02947,0.112,−0.006852,0.02477,0.01408,0.02306,0.01158,0.04874,0.08241,–
C=C(C)[C@H]1Cc2c(ccc3c2O[C@@H]2COc4cc(OC)c(OC)cc4[C@@H]2C3=O)O1 [Rotenone],−0.0266,−0.03435,−0.01674,0.1066,0.0838,−0.02278,0.01421,−0.01131,0.1439,0.06492,0.1037,0.005801,−0.02888,0.02007,−0.02169,0.05116,−0.01075,0.04408,–
